Assay results published in US20040180959A1, “Gabapentin analogues for fibromy algia and concomitant disorders” (priority 2002, published 2004).

Assays:
Assay type in all cases: in vivo
[1] = test system: CD-1 mice; experiment: Tail Suspension Test (TST) in mice; conditions: 2 hours after treatment
Description: The anxiolytic and antidepressant activity of (3S, 4S)-(1-Aminomethyl-3,4-dimethyl-cyclopentyl)-acetic acid (“Compound A”) was assessed using the Tail Suspension Test (TST) in mice, and in the Water-lick (Vogel) Conflict Test (WLC) in rats. The Vogel test is a recognized test procedure for assessing the potential anxiolytic utility. The TST procedure is a behavior despair paradigm used to assess potential antidepressant activity.
The method consisted of suspending mice by a piece of cellophane tape attached to the distal end of the tail for 6 minutes. Animals (CD-1 mice, weighing 22 to 27 g, from Charles River Labs) were tested. The test apparatus was the TST-2™ (ITEM-Labo, Le Kremmlin-Bicetre Cedex, France). Data were analyzed with analysis of variance (ANOVA) and Tukey's Multiple Range Test or Student's t-test.
(§1) Compound A was dissolved in water and tested orally as a solution from 0.3 to 100 mg/kg in rats and 3 to 300 mg/kg in mice. Dosages are expressed as the active moiety and were administered in a volume of 1 mL/kg for rats and 10 mL/kg for mice.
The profile of typical […] activity in the TST consists of […]. Compound A and pregabalin were tested concurrently (PO) 2 hours after treatment. Compound A was administered at doses ranging from 3 to 100 mg/kg and pregabalin was tested from 3-300 mg/kg and served as positive control (Table 1). Compound A dose dependently increases immobility with the MED observed at the 3 mg/kg dosage and maximal effects were seen following the 30 mg/kg dose.

[2] = test system: mice; experiment: Inverted Screen Test to assess coordination; conditions: immediately following the TST
Description: Immediately following the TST, mice were also tested in the Inverted Screen Test to assess coordination. Animals were given a 1-minute trial in which they had to climb to the top of the inverted screen or to simply hang on and not fall off.

[3] = test system: Wistar rats; experiment: Water-lick (Vogel) Conflict Test in rats; conditions: for Percent of Animals Tested With >20 Shock Episodes / Mean Shock Episodes (1 mA): pretreatment 120 minutes; for Mean Shock Episodes (1 mA): Mean ± SEM
Description: In each experiment, naive adult male Wistar rats between 170 to 200 g were randomly divided into groups (N=10-30/group) and deprived of water for 48 hours prior to testing. Food was available on Day 1 and removed 24 hours prior to test Day 2.
Apparatus: The modular operant test cage (Coulbourn Instruments) measures 10.25×12×12 in. The test chambers feature 3 modular bays on each side of the cage for a total of 6 bays. A module optical lickometer is mounted on one side of the chamber 5 cm above the grid floor. The lickometer is used to measure licking-drinking from a water bottle mounted outside the test chamber. A photo beam is piped via glass rods to the tip of the drink tube across a gap at the end of the tube. The animals tongue breaks the beam on each lick. The front and back of the test chamber is made of clear Plexiglas. The front door is covered to reduce distractions from inside the test room. The back of the test chamber is facing a wall, away from the flow of traffic within the testing room and remains uncovered to provide the opportunity for observations during testing. Shocks are delivered using a (Coulbourn) programmable universal shocker calibrated to deliver a 1 mA shock for 1 second through the drink tube.
Procedure: On Day 1, after a 24-hour water deprivation, experimental subjects were placed into the test chambers and allowed to drink unpunished. Drinking was limited to 500 responses or approximately 5 mL of water during a 10 minute session. Immediately following the unpunished drinking session, rats were returned to their home cages, deprived of water for an additional 24 hours and was food deprived. […] After the pretreatment period rats were placed into a test chamber and allowed to drink for 10 minutes. After every 10 licks, rats received a 1-second shock (1 mA) through the drink tube. Thus, a conflict or anxiety-producing situation exists. Rats are motivated to drink; however, they are inhibited by the shock. Anxiety is reflected by the low amounts of drinking. Standard anxiolytic drugs produce effects that allow rats to overcome this behavioral inhibition and drink despite the shock.
All data were analyzed using a Kruskal-Wallis one Way Analysis of Variance on Ranks and Mann-Whitney Rank Sum Tests.
Quantitative Analysis: A quantitative analysis represents the percentage of subjects within a treatment group that receives >20 shock episodes during a test session. This number provides a quantitative comparison regarding the distribution of the responses.
as §1

[4] = dose 3× the Vogel MED (30 mg/kg)

**Q.** `CC(C)C[C@H](CN)CC(=O)O` [Pregabalin, pregabalin, reference compound] was tested. Which “Immobility, % Percent of control” value ([1]; 3 mg/kg PO) did it give?
**A.** 102.9 ± 9.5%

**Q.** What about the “Power of Movement, % Percent of control” value ([1]; 3 mg/kg PO) of the same compound?
**A.** 99.1 ± 22.9%

**Q.** What about the “Immobility, % Percent of control” value ([1]; 10 mg/kg PO) of the same compound?
**A.** 134.5 ± 9.9 %

**Q.** And the “Power of Movement, % Percent of control” value ([1]; 10 mg/kg PO)?
**A.** 89.6 ± 18.7%

**Q.** And the “Immobility, % Percent of control” value ([1]; 30 mg/kg PO)?
**A.** 136.9 ± 7.1 %

**Q.** What about the “Power of Movement, % Percent of control” value ([1]; 30 mg/kg PO) of the same compound?
**A.** 96.4 ± 22.7%

**Q.** What about the “Immobility, % Percent of control” value ([1]; 100 mg/kg PO) of the same compound?
**A.** 152.7 ± 6.6 %

**Q.** And the “Power of Movement, % Percent of control” value ([1]; 100 mg/kg PO)?
**A.** 73.4 ± 12.5%

**Q.** And the “Immobility, % Percent of control” value ([1]; 300 mg/kg PO)?
**A.** 160.5 ± 7.4 %

**Q.** What about the “Power of Movement, % Percent of control” value ([1]; 300 mg/kg PO) of the same compound?
**A.** 76.6 ± 12.2%

**Q.** And the “Screen fall-off, animals of animals tested” value ([2]; 100 mg/kg PO)?
**A.** 1 of 10

**Q.** What about the “Screen fall-off, animals of animals tested” value ([2]; 300 mg/kg PO) of the same compound?
**A.** 1 of 10

**Q.** What about the “Percent of Animals Tested With >20 Shock Episodes” value ([3]; 0.3 mg/kg PO) of the same compound?
**A.** 0%

**Q.** And the “Mean Shock Episodes (1 mA)” value ([3]; 0.3 mg/kg PO)?
**A.** 5.1 ± 1.0

**Q.** What about the “Percent of Animals Tested With >20 Shock Episodes” value ([3]; 1 mg/kg PO) of the same compound?
**A.** 20%

**Q.** What about the “Mean Shock Episodes (1 mA)” value ([3]; 1 mg/kg PO) of the same compound?
**A.** 15.0 ± 6.3

**Q.** And the “Percent of Animals Tested With >20 Shock Episodes” value ([3]; 3 mg/kg PO)?
**A.** 20%

**Q.** And the “Mean Shock Episodes (1 mA)” value ([3]; 3 mg/kg PO)?
**A.** 10.2 ± 1.6

**Q.** And the “Percent of Animals Tested With >20 Shock Episodes” value ([3]; 10 mg/kg PO)?
**A.** 20%

**Q.** What about the “Mean Shock Episodes (1 mA)” value ([3]; 10 mg/kg PO) of the same compound?
**A.** 14.7 ± 4.0

**Q.** And the “Shock episodes (time-course)” value ([3]; 10 mg/kg, 1 hr post treatment)?
**A.** 65.8 ± 10.8

**Q.** And the “Shock episodes (time-course)” value ([3]; 10 mg/kg, 2 hr post treatment)?
**A.** 73.3 ± 13.7

**Q.** And the “Shock episodes (time-course)” value ([3]; 10 mg/kg, 4 hr post treatment)?
**A.** 75.1 ± 13.7

**Q.** And the “Shock episodes (time-course)” value ([3]; 10 mg/kg, 6 hr post treatment)?
**A.** 54.9 ± 14.7

**Q.** And the “Shock episodes (time-course)” value ([3]; 10 mg/kg, 8 hr post treatment)?
**A.** 41.9 ± 13.5

**Q.** And the “Percent of Animals Tested With >20 Shock Episodes” value ([3]; 30 mg/kg PO)?
**A.** 50%

**Q.** And the “Mean Shock Episodes (1 mA)” value ([3]; 30 mg/kg PO)?
**A.** 51.0 ± 19.1

**Q.** What about the “Shock episodes (time-course)” value ([3]; 30 mg/kg, 30 min. post treatment) of the same compound?
**A.** 27.7 ± 8.2

**Q.** What about the “Shock episodes (time-course)” value ([3]; 30 mg/kg, 1 hr post treatment) of the same compound?
**A.** 66.5 ± 10

**Q.** And the “Shock episodes (time-course)” value ([3]; 30 mg/kg, 2 hr post treatment)?
**A.** 59.8 ± 9.8

**Q.** What about the “Shock episodes (time-course)” value ([3]; 30 mg/kg, 4 hr post treatment) of the same compound?
**A.** 100.3 ± 12

**Q.** And the “Shock episodes (time-course)” value ([3]; 30 mg/kg, 6 hr post treatment)?
**A.** 39.5 ± 9

**Q.** And the “Shock episodes (time-course)” value ([3]; 30 mg/kg, 8 hr post treatment)?
**A.** 30.4 ± 9.1

**Q.** What about the “Percent of Animals Tested With >20 Shock Episodes” value ([3]; 100 mg/kg PO) of the same compound?
**A.** 50%

**Q.** What about the “Mean Shock Episodes (1 mA)” value ([3]; 100 mg/kg PO) of the same compound?
**A.** 40.7 ± 11.1

**Q.** What about the “Time of maximal effects after treatment” value ([3]; MED dose 10 mg/kg) of the same compound?
**A.** 2 to 4 h

**Q.** What about the Activity maintained through [3, 4] of the same compound?
**A.** 8 h

**Q.** And the “Onset of activity after treatment” value [3, 4]?
**A.** 1 h

**Q.** And the “Time of peak activity post treatment” value [3, 4]?
**A.** 6 h

**Q.** What about the “MED for anti-conflict activity” value ([3]; oral, 2 hour pretreatment, rats) of the same compound?
**A.** 10 mg/kg
